Consider eight compounds from PubChem BioAssay AID1752 (Sanford-Burnham Center for Chemical Genomics, 2009).

Several values for one entry are separate records, joined by “and”; a condition that tells them apart may be missing. Identical values can stand only once. Activity calls are given as the source filed them. No rule for the calls is given here.

This experiment relates to PPC-1 cells, TRAIL-induced apoptosis potentiation. As to the kind of experiment: TRAIL sensitization of PPC-1 cells, potency – analog series, SAR follow-up (AID 1752).
Usually IC50 stands for the concentration at which inhibition is half-maximal. Turning to `COc1cc(-c2ccccc2)[nH]c(=S)n1`, the IC50 was > 10 µM (inactive). For the compound `CCSc1nc(-c2ccccc2)cc(=O)[nH]1`, the IC50 was > 10 µM (inactive). For the compound `CSc1nc(-c2ccccc2)nc(C(C)C)n1`, the IC50 was > 10 µM (inactive). The same measure for `CC(Sc1nc(-c2ccccc2)cc(C(F)(F)F)n1)C(=O)N1CCCC1` (stereo not drawn): > 10 µM (inactive); for `CSc1nc(-c2ccc(C)cc2)nc(C(Cl)Cl)n1`: 0.372 µM and 0.602 µM.

For `CSc1nc(-c2ccccc2)nc(-c2ccccc2OC(C)=O)n1`, the IC50 is > 10 µM (inactive). With `CSc1nc(-c2ccccc2)nc(-c2ccccc2)n1`, the IC50 is > 10 µM (inactive).

As to `CCSc1cc(N2CCCC2)nc(-c2ccc(Cl)cc2)n1`, the IC50 is > 10 µM (inactive).
